Reference: patent publication US20240174680A1, “CDK2 INHIBITORS AND METHODS OF USING THE SAME” (Cedilla Therapeutics, Inc., priority 2021, published 2024)

Target: CDK2/Cyclin E1 (Homo sapiens, UniProt P24941)
Assay: CDK2/Cyclin E1 Caliper LabChip EZ Reader mobility shift assay
Assay type: biochemical
Parameters: purchased Eurofins 14-475
Conditions: read-out: Caliper Assay (CDK2/CCNE1): IC50
Method: Inhibition of CDK2/Cyclin E1 activity in the presence of compounds of the present disclosure was evaluated using a Caliper LabChip® EZ Reader mobility shift assay. In the assay, CDK2/Cyclin E1 (Eurofins, 14-475) catalyzed the phosphorylation of a fluorescently tagged peptide 5-FAM-QSPKKG-CONH2 (PerkinElmer, FL Peptide 18) which induced a difference in capillary electrophoresis mobility. The peptide substrate and product were measured, and the conversion ratio was used to determine the inhibition (as % activity and IC50 values) of CDK2/Cyclin E1. Reactions contained 50 mM HEPES pH 7.5, 10 mM MgCl2, 1 mM EDTA, 2 mM DTT, 0.01% Brij35, 0.5 mg/mL BSA, 0.1% DMSO, 2.5 nM CDK2/Cyclin E1, 100 μM ATP, and 1.5 μM fluorescent peptide substrate.
Dose titrations of inhibitors in 100% DMSO were combined with 3.25 nM CDK2/Cyclin E1 and 130 μM of ATP in reaction buffer. The mixtures were incubated for 30 minutes before the addition of fluorescent peptide substrate to initiate the kinase reaction. The final conditions were 2.5 nM CDK2/Cyclin E1, 100 μM ATP, and 1.5 μM fluorescent peptide. The reactions were stopped after 100 minutes with the addition of EDTA (400 mM final EDTA concentration). The stopped reactions were analyzed on a Caliper LabChip® EZ Reader II. The conversion ratios were normalized to yield % activity, plotted against compound concentration, and fit to a four-parameter equation to determine the IC50 for each compound.

Row | SMILES | IC50 [µM]
1 | CNC(=O)[C@@H](NC(=O)[C@H]1CN(C(=O)c2cnc(CC3CC3)s2)CC12CN(C(=O)[C@H]1CC1(C)C)C2)[C@@H](C)OCC1CCCCC1 [I-177B] | 1 to 10
2 | CNC(=O)[C@@H](NC(=O)[C@@H]1CN(C(=O)c2cnn(Cc3ccccc3)c2)CC12CN(C(=O)[C@H]1CC1(C)C)C2)[C@@H](C)OCC1CCCCC1 [I-123A, (S)-6-(1-benzyl-1H-pyrazole-4-carbonyl)-N-((2S,3R)-3-(cyclohexylmethoxy)-1-(methylamino)-1-oxobutan-2-yl)-2-((S)-2,2-dimethylcyclopropane-1-carbonyl)-2,6-diazaspiro[3.4]octane-8-carboxamide] | ≤ 0.01
3 | CNC(=O)[C@@H](NC(=O)[C@H]1CN(C(=O)c2cnn(CC3CCN(C(C)=O)CC3)c2)CC12CN(C(=O)[C@H]1CC1(C)C)C2)[C@@H](C)OCc1ccccc1 [I-17B] | > 10
4 | CNC(=O)[C@@H](NC(=O)[C@H]1CN(Cc2cnn(Cc3ccccc3)c2)CC12CN(C(=O)[C@H]1CC1(C)C)C2)[C@@H](C)OCc1ccccc1 [I-16B] | > 10
5 | CNC(=O)[C@@H](NC(=O)[C@@H]1CN(Cc2cnn(Cc3ccccc3)c2)CC12CN(C(=O)[C@H]1CC1(C)C)C2)[C@@H](C)OCc1ccccc1 [I-16A] | > 10
6 | CNC(=O)[C@@H](NC(=O)[C@H]1CN(C(=O)c2cnn(Cc3ccccc3)c2)CC12CN(C(=O)C1(C)CC1)C2)[C@@H](C)OCc1ccccc1 [I-67B] | > 10
7 | C[C@@H](NC(=O)[C@H]1CN(C(=O)c2cnn(Cc3ccccc3)c2)CC12CN(C(=O)[C@H]1CC1(C)C)C2)c1cccc(F)c1 [I-128B] | > 10
8 | CNC(=O)[C@@H](NC(=O)[C@H]1CN(C(=O)c2cnn(Cc3ccccc3)c2)CC12CN(C(=O)C(C)(C)C#N)C2)[C@@H](C)OCc1ccccc1 [I-76B] | > 10
9 | C[C@@H](OCC1CCC(F)(F)CC1)[C@H](NC(=O)[C@H]1CN(C(=O)c2cnn(Cc3ccc(F)cc3)c2)CC12CN(C(=O)[C@H]1CC1(C)C)C2)C(=O)N1CCC(F)(F)CC1 [I-164B] | 0.01 to 0.1
10 | CNC(=O)[C@@H](NC(=O)[C@H]1CN(C(=O)c2cncs2)CC12CN(C(=O)[C@H]1CC1(C)C)C2)[C@@H](C)OCc1ccccc1 [I-24B] | > 10
11 | CNC(=O)[C@@H](NC(=O)[C@H]1CN(C(=O)c2cnn(CC(F)(F)F)c2)CC12CN(C(=O)CC1CC1)C2)[C@@H](C)OCc1ccccc1 [I-43B] | > 10
12 | CNC(=O)[C@@H](NC(=O)[C@@H]1CN(C(=O)c2cnn(Cc3ccccc3)c2)CC12CN(C(=O)[C@H]1CC1(C)C)C2)[C@@H](C)OCC1CCC(C(F)(F)F)CC1 (stereo partly drawn) [I-141A] | 0.01 to 0.1
13 | CNC(=O)[C@@H](NC(=O)[C@@H]1CN(C(=O)c2cnn(C)c2)CC12CN(C(=O)[C@H]1CC1(C)C)C2)[C@@H](C)OCc1ccccc1 [I-33A] | 0.1 to 1
14 | CNC(=O)[C@@H](NC(=O)[C@H]1CN(C(=O)c2cnn(Cc3ccccc3)c2)CC12CN(C(=O)C1(CCOC)CC1)C2)[C@@H](C)OCc1ccccc1 [I-102B] | > 10
15 | COC(=O)[C@H](CO)NC(=O)[C@@H]1CN(C(=O)c2cnn(Cc3ccccc3)c2)CC12CN(C(=O)[C@H]1CC1(C)C)C2 [I-209A] | 1 to 10
16 | CNC(=O)[C@@H](NC(=O)[C@H]1CN(C(=O)c2cnn(Cc3ccccc3)c2)CC12CN(C(=O)C1(c3ccc(C(C)(C)C)cc3)CC1)C2)[C@@H](C)OCc1ccccc1 [I-80B] | > 10
17 | CNC(=O)[C@@H](NC(=O)[C@H]1CN(C(=O)Nc2cnn(Cc3ccccc3)c2)CC12CN(C(=O)[C@H]1CC1(C)C)C2)[C@@H](C)OCc1ccccc1 [I-48B] | > 10
18 | C[C@@H](OCC1CCC(F)(F)CC1)[C@H](NC(=O)[C@@H]1CN(C(=O)c2cncs2)CC12CN(C(=O)[C@H]1CC1(C)C)C2)C(=O)N1C2CCC1COC2 [I-468] | ≤ 0.01
19 | COC(=O)[C@@H](CO)NC(=O)[C@H]1CN(C(=O)c2cnn(Cc3ccccc3)c2)CC12CN(C(=O)[C@H]1CC1(C)C)C2 [I-187B] | > 10

The next lines start with the values.

Row | IC50 [µM] | SMILES
20 | 0.01 to 0.1 | C[C@@H](OCc1ccccc1)[C@H](NC(=O)C1CN(C(=O)c2cnn(Cc3ccccc3)c2)CC12CN(C(=O)[C@H]1CC1(C)C)C2)C(=O)N1CCCCC1 (stereo partly drawn) [I-97, 6-(1-benzyl-1H-pyrazole-4-carbonyl)-N-((2S,3R)-3-(benzyloxy)-1-oxo-1-(piperidin-1-yl)butan-2-yl)-2-((S)-2,2-dimethylcyclopropanecarbonyl)-2,6-diazaspiro[3.4]octane-8-carboxamide]
21 | > 10 | CNC(=O)C(NC(=O)[C@@H]1CN(C(=O)c2cncs2)CC12CN(C(=O)C(C)(C)C1CC1)C2)c1cccc(C2CCOCC2)n1 (stereo partly drawn) [I-338]
22 | > 10 | CNC(=O)[C@@H](NC(=O)[C@@H]1CN(C(=O)c2nccs2)CC12CN(C(=O)[C@H]1CC1(C)C)C2)[C@@H](C)OCC1CCCCC1 [I-169]
23 | 0.01 to 0.1 | CC1(C)C[C@@H]1C(=O)N1CC2(CN(C(=O)c3cncs3)C[C@H]2C(=O)NC(c2cccc(C3CCCCC3)n2)C2CCOC2)C1 (stereo partly drawn) [I-493]
24 | 0.01 to 0.1 | CNC(=O)[C@@H](NC(=O)[C@@H]1CN(C(=O)c2cnn(Cc3ccccc3)c2)CC12CN(C(=O)[C@H]1CC1(C)C)C2)C(C)(C)OCc1ccccc1 [I-393]
25 | 0.1 to 1 | C[C@@H](OCc1ccccc1)[C@H](NC(=O)C1CN(C(=O)c2cnn(Cc3ccccc3)c2)CC12CN(C(=O)[C@H]1CC1(C)C)C2)C(=O)O (stereo partly drawn) [I-9, (2S,3R)-2-(6-(1-benzyl-1H-pyrazole-4-carbonyl)-2-((S)-2,2-dimethylcyclopropanecarbonyl)-2,6-diazaspiro[3.4]octane-8-carboxamido)-3-(benzyloxy)butanoic acid]
26 | ≤ 0.01 | COC[C@H]1CCCN(C(=O)[C@@H](NC(=O)[C@@H]2CN(C(=O)c3cncs3)CC23CN(C(=O)[C@H]2CC2(C)C)C3)[C@@H](C)OCc2ccc(OC(F)(F)F)cc2)C1 [I-320]
27 | 0.1 to 1 | CNC(=O)C(NC(=O)[C@@H]1CN(C(=O)c2cncs2)CC12CN(C(=O)[C@H]1CC1(C)C)C2)c1nc(C2CCCCC2)co1 (stereo partly drawn) [I-425]
28 | ≤ 0.01 | C[C@@H](OCC1CCCCC1)[C@@H](COCC1CCCCC1)NC(=O)[C@@H]1CN(C(=O)c2cncs2)CC12CN(C(=O)[C@H]1CC1(C)C)C2 [I-282]
29 | 1 to 10 | CC1(C)C[C@@H]1C(=O)N1CC2(CN(C(=O)c3cnn(Cc4ccccc4)c3)C[C@H]2C(=O)N[C@@H]2CCN(c3ccccc3)C2)C1 [I-207]
30 | > 10 | CNC(=O)[C@@H](NC(=O)[C@@H]1CN(C(=O)c2cncs2)CC12CN(CC1CCCO1)C2)[C@@H](C)OCC1CCCCC1 (stereo partly drawn) [I-352]
31 | 1 to 10 | Cc1n[nH]c(C(=O)N2C[C@@H](C(=O)N[C@H](C(=O)N3CCCCC3)[C@@H](C)OCC3CCCCC3)C3(C2)CN(C(=O)[C@H]2CC2(C)C)C3)n1 [I-241]
32 | 0.01 to 0.1 | C[C@@H](OCc1ccccc1)[C@H](NC(=O)[C@@H]1CN(C(=O)c2cncs2)CC12CN(C(=O)[C@H]1CC1(C)C)C2)C(=O)N(C)C [I-416]
33 | > 10 | CC(C)(O)C(NC(=O)[C@@H]1CN(C(=O)c2cnco2)CC12CN(C(=O)[C@H]1CC1(C)C)C2)c1cccc(C2CCOCC2)n1 (stereo partly drawn) [I-436]
34 | 0.1 to 1 | CNC(=O)[C@@H](NC(=O)[C@@H]1CN(C(=O)c2cncs2)CC12CN(C(=O)[C@H]1CC1(C)C)C2)[C@@H](C)OC1CCCCC1 [I-290]
35 | > 10 | CNC(=O)[C@@H](NC(=O)[C@@H]1CN(C(=O)Cc2cnn(C)c2)CC12CN(C(=O)[C@H]1CC1(C)C)C2)[C@@H](C)OCc1ccccc1 [I-384]
36 | 0.1 to 1 | CNC(=O)C(NC(=O)[C@@H]1CN(C(=O)c2cncs2)CC12CN(C(=O)[C@H]1CC1(C)C)C2)c1cccc(N2CC3(CC(C(F)(F)F)C3)C2)n1 (stereo partly drawn) [I-430]
